From ChEMBL document CHEMBL3885861, “Open TG-GATES”

Organism: Rattus norvegicus
Assay: Open TG-GATES - Regimen: Daily Repeat
Format: toxicity, organism-based, Sprague-Dawley
Parameters: regimen Daily Repeat, gender Male, age 6 weeks
Conditions: in vivo, po, 0 mg/kg, route gavage, dose level Control; for APTT / Bas / Eos / Fbg / Hb / Ht / Lym / MCH / MCHC / MCV / Mono / Neu / PT / Plat / RBC / Ret / WBC: tissue Blood; for KIDNEY_L / KIDNEY_R / KIDNEY_TOTAL: tissue Kidney; for LIVER: tissue Liver; for A/G / ALP / ALT / AST / BUN / CRE / Ca / Cl / DBIL / GLC / IP / K / LDH / Na / PL / RALB / TBIL / TC / TG / TP / gamma-GTP: tissue Plasma

`CCOC(=O)[C@H](CCc1ccccc1)N[C@@H](C)C(=O)N1CCC[C@H]1C(=O)O` showed a TERMINAL_BW (72 h, time 3 day) of 253.2 g, an APTT (72 h, time 3 day) of 16 s and a Bas (72 h, time 3 day) of 0%. The Eos (72 h, time 3 day) was 1%, the Fbg (72 h, time 3 day) was 242 mg/dL and the Hb (72 h, time 3 day) was 13.2 g/dL. The Ht (72 h, time 3 day) was 40.1%, the Lym (72 h, time 3 day) was 73.6% and the MCH (72 h, time 3 day) was 21 pg. For the same compound, the MCHC (72 h, time 3 day) was 32.9%, the MCV (72 h, time 3 day) was 63.9 fL and the Mono (72 h, time 3 day) was 7.8%. The Neu (72 h, time 3 day) was 17.4%, the PT (72 h, time 3 day) was 11.8 s and the Plat (72 h, time 3 day) was 123.1 x10_4/uL. It also gave an RBC (72 h, time 3 day) of 627.6 x10_4/ul, a Ret (72 h, time 3 day) of 6.6% and a WBC (72 h, time 3 day) of 111.6 x10_2/uL. For the same compound, the KIDNEY_L (72 h, time 3 day) was 1.1 g, the KIDNEY_R (72 h, time 3 day) was 1.1 g and the KIDNEY_TOTAL (72 h, time 3 day) was 2.2 g. It also gave an LIVER (72 h, time 3 day) of 12.4 g, an A/G (72 h, time 3 day) of 1.8 and an ALP (72 h, time 3 day) of 993.8 IU/L. For the same compound, the ALT (72 h, time 3 day) was 38.6 IU/L, the AST (72 h, time 3 day) was 63.4 IU/L and the BUN (72 h, time 3 day) was 19 mg/dL. It also gave a CRE (72 h, time 3 day) of 0.5 mg/dL, a Ca (72 h, time 3 day) of 11 mg/dL and a Cl (72 h, time 3 day) of 105 meq/L. It also gave a DBIL (72 h, time 3 day) of 0.022 mg/dL, a GLC (72 h, time 3 day) of 209.8 mg/dL and an IP (72 h, time 3 day) of 9 mg/dL. For the same compound, the K (72 h, time 3 day) was 4.7 meq/L, the LDH (72 h, time 3 day) was 82.2 IU/L and the Na (72 h, time 3 day) was 141.4 meq/L. It also gave a PL (72 h, time 3 day) of 149.6 mg/dL, an RALB (72 h, time 3 day) of 3.8 g/dL and a TBIL (72 h, time 3 day) of 0.4 mg/dL. For the same compound, the TC (72 h, time 3 day) was 81 mg/dL, the TG (72 h, time 3 day) was 114.6 mg/dL and the TP (72 h, time 3 day) was 5.9 g/dL. For the same compound, the gamma-GTP (72 h, time 3 day) was 1.2 IU/L, the TERMINAL_BW ([…], time 7 day) was 279.2 g and the TERMINAL_BW ([…], time 14 day) was 338.3 g. The TERMINAL_BW ([…], time 28 day) was 401.8 g, the APTT ([…], time 7 day) was 16.4 s and the Bas ([…], time 7 day) was 0%. The Eos ([…], time 7 day) was 1.2%, the Fbg ([…], time 7 day) was 227.8 mg/dL and the Hb ([…], time 7 day) was 13.9 g/dL. The Ht ([…], time 7 day) was 41.9%, the Lym ([…], time 7 day) was 78.8% and the MCH ([…], time 7 day) was 21.4 pg. It also gave an MCHC ([…], time 7 day) of 33.3%, an MCV ([…], time 7 day) of 64.6 fL and a Mono ([…], time 7 day) of 6%. For the same compound, the Neu ([…], time 7 day) was 14%, the PT ([…], time 7 day) was 11.6 s and the Plat ([…], time 7 day) was 121.8 x10_4/uL. For the same compound, the RBC ([…], time 7 day) was 649.6 x10_4/ul, the Ret ([…], time 7 day) was 6.5% and the WBC ([…], time 7 day) was 122 x10_2/uL. The APTT ([…], time 14 day) was 16.5 s, the Bas ([…], time 14 day) was 0% and the Eos ([…], time 14 day) was 1%. The Fbg ([…], time 14 day) was 232.8 mg/dL, the Hb ([…], time 14 day) was 13.9 g/dL and the Ht ([…], time 14 day) was 41.7%. The Lym ([…], time 14 day) was 79.2%, the MCH ([…], time 14 day) was 20.6 pg and the MCHC ([…], time 14 day) was 33.3%. It also gave an MCV ([…], time 14 day) of 61.8 fL, a Mono ([…], time 14 day) of 5.8% and a Neu ([…], time 14 day) of 13.4%. For the same compound, the PT ([…], time 14 day) was 11.4 s, the Plat ([…], time 14 day) was 115 x10_4/uL and the RBC ([…], time 14 day) was 675.8 x10_4/ul. The Ret ([…], time 14 day) was 4.1%, the WBC ([…], time 14 day) was 143.8 x10_2/uL and the APTT ([…], time 28 day) was 17.7 s. It also gave a Bas ([…], time 28 day) of 0%, an Eos ([…], time 28 day) of 1.2% and a Fbg ([…], time 28 day) of 249 mg/dL. The Hb ([…], time 28 day) was 15.3 g/dL, the Ht ([…], time 28 day) was 46.4% and the Lym ([…], time 28 day) was 80%. The MCH ([…], time 28 day) was 19.3 pg, the MCHC ([…], time 28 day) was 33% and the MCV ([…], time 28 day) was 58.3 fL. It also gave a Mono ([…], time 28 day) of 6%, a Neu ([…], time 28 day) of 12.6% and a PT ([…], time 28 day) of 11.6 s. For the same compound, the Plat ([…], time 28 day) was 107.8 x10_4/uL, the RBC ([…], time 28 day) was 797.4 x10_4/ul and the Ret ([…], time 28 day) was 3.1%. The WBC ([…], time 28 day) was 125.5 x10_2/uL, the KIDNEY_L ([…], time 7 day) was 1.2 g and the KIDNEY_R ([…], time 7 day) was 1.2 g. It also gave a KIDNEY_TOTAL ([…], time 7 day) of 2.4 g, a KIDNEY_L ([…], time 14 day) of 1.3 g and a KIDNEY_R ([…], time 14 day) of 1.3 g. It also gave a KIDNEY_TOTAL ([…], time 14 day) of 2.6 g, a KIDNEY_L ([…], time 28 day) of 1.4 g and a KIDNEY_R ([…], time 28 day) of 1.4 g. It also gave a KIDNEY_TOTAL ([…], time 28 day) of 2.8 g, an LIVER ([…], time 7 day) of 14 g and an LIVER ([…], time 14 day) of 15.8 g. The LIVER ([…], time 28 day) was 16.1 g, the A/G ([…], time 7 day) was 2.1 and the ALP ([…], time 7 day) was 778.4 IU/L. It also gave an ALT ([…], time 7 day) of 37.8 IU/L, an AST ([…], time 7 day) of 62 IU/L and a BUN ([…], time 7 day) of 18.2 mg/dL. The CRE ([…], time 7 day) was 0.5 mg/dL, the Ca ([…], time 7 day) was 10.7 mg/dL and the Cl ([…], time 7 day) was 106 meq/L. For the same compound, the DBIL ([…], time 7 day) was 0.002 mg/dL, the GLC ([…], time 7 day) was 207 mg/dL and the IP ([…], time 7 day) was 8.6 mg/dL. The K ([…], time 7 day) was 5 meq/L, the LDH ([…], time 7 day) was 89.2 IU/L and the Na ([…], time 7 day) was 140.2 meq/L. For the same compound, the PL ([…], time 7 day) was 157.4 mg/dL, the RALB ([…], time 7 day) was 4 g/dL and the TBIL ([…], time 7 day) was 0.4 mg/dL. For the same compound, the TC ([…], time 7 day) was 78.2 mg/dL, the TG ([…], time 7 day) was 130.2 mg/dL and the TP ([…], time 7 day) was 5.9 g/dL. The gamma-GTP ([…], time 7 day) was 1.6 IU/L, the A/G ([…], time 14 day) was 1.6 and the ALP ([…], time 14 day) was 684 IU/L. It also gave an ALT ([…], time 14 day) of 31 IU/L, an AST ([…], time 14 day) of 58.2 IU/L and a BUN ([…], time 14 day) of 19.6 mg/dL. It also gave a CRE ([…], time 14 day) of 0.6 mg/dL, a Ca ([…], time 14 day) of 10.9 mg/dL and a Cl ([…], time 14 day) of 106.4 meq/L. The DBIL ([…], time 14 day) was 0 mg/dL, the GLC ([…], time 14 day) was 209.6 mg/dL and the IP ([…], time 14 day) was 8 mg/dL. For the same compound, the K ([…], time 14 day) was 4.4 meq/L, the LDH ([…], time 14 day) was 105.2 IU/L and the Na ([…], time 14 day) was 140 meq/L. It also gave a PL ([…], time 14 day) of 162.2 mg/dL, an RALB ([…], time 14 day) of 3.9 g/dL and a TBIL ([…], time 14 day) of 0.3 mg/dL. It also gave a TC ([…], time 14 day) of 77 mg/dL, a TG ([…], time 14 day) of 172 mg/dL and a TP ([…], time 14 day) of 6.2 g/dL. It also gave a gamma-GTP ([…], time 14 day) of 1.4 IU/L, an A/G ([…], time 28 day) of 1.9 and an ALP ([…], time 28 day) of 643.2 IU/L. It also gave an ALT ([…], time 28 day) of 29.2 IU/L, an AST ([…], time 28 day) of 54.2 IU/L and a BUN ([…], time 28 day) of 19.2 mg/dL. For the same compound, the CRE ([…], time 28 day) was 0.7 mg/dL, the Ca ([…], time 28 day) was 10.7 mg/dL and the Cl ([…], time 28 day) was 107.2 meq/L. The DBIL ([…], time 28 day) was 0.036 mg/dL, the GLC ([…], time 28 day) was 202.6 mg/dL and the IP ([…], time 28 day) was 7 mg/dL. For the same compound, the K ([…], time 28 day) was 4.5 meq/L, the LDH ([…], time 28 day) was 61 IU/L and the Na ([…], time 28 day) was 140.2 meq/L. For the same compound, the PL ([…], time 28 day) was 145 mg/dL, the RALB ([…], time 28 day) was 4 g/dL and the TBIL ([…], time 28 day) was 0.3 mg/dL. It also gave a TC ([…], time 28 day) of 66.4 mg/dL, a TG ([…], time 28 day) of 128.2 mg/dL and a TP ([…], time 28 day) of 6.2 g/dL. It also gave a gamma-GTP ([…], time 28 day) of 1.4 IU/L.
